Patent US10519177B2, “Heterocyclic compounds and uses thereof” (Plexxikon Inc., priority 2013, dated 2019)
Read-outs that look alike come from different tables or passages of the source.

What was measured:
BRD4-BD12 (1-477) = BRD4-BD12 (1-477) (Homo sapiens (Human), UniProt O60885); assay: Alphascreen binding assay BRD4-BD12; conditions: BRD4(1 2) H4; read-out: Biochemical activity (IC50 μM) BRD4(1 2) H4
Outline: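 In this competition format, compounds displace a biotinylated tetra-acetyl H4 peptide from E. coli-expressed human BRD4 bromodomain constructs captured on nickel chelate beads. The reaction runs at pH 7.5 with 2 mM DTT and detergent for 1 h at room temperature before a 30 min bead step.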

MV-4-11 cells = assay: Oncology cell growth assay MV-4-11 (CellTiter Glo); type: cell-based; conditions: Homo sapiens, MV4-11, 72 h, read-out: Cell activity (IC50 μM) MV-4-11 3d-Growth
Outline: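 Growth read by CellTiter Glo luminescence after 72 h compound treatment of MLL-AF4-bearing MV-4-11 cells (3000/well). Titration: 8 points, 1:3 steps, maximum 10 μM, 0.2% DMSO final. Data normalized to DMSO wells, four-parameter fit gives pIC50.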

bromodomain = assay: at least one of the bromodomain cell assays of Example 57; type: cell-based; conditions: at least one of the bromodomain cell assays described in Example 57; read-out: IC50 in at least one of the bromodomain cell assays

Compound	IC50 (BRD4-BD12 (1-477)) [µM]	IC50 (MV-4-11 cells) [µM]	IC50 (bromodomain) [nM]	IC50 (MV-4-11 cells; MV-4-11, 3d growth) [µM]
[2H]C([2H])(C1CCC(F)(F)CC1)n1cc(-c2ccc(C)nc2)c2ncc(-c3c(C)noc3C)cc21 [P-0344, 4-[1-[dideuterio-(4,4-difluorocyclohexyl)methyl]-3-(6-methyl-3-pyridyl)pyrrolo[3,2-b]pyridin-6-yl]-3,5-dimethyl-isoxazole]	< 1	< 1	< 10000	–
CNS(=O)(=O)c1cccc(-c2cn(CC3(F)CCCCC3)c3cc(-c4c(C)noc4C)cnc23)c1 [P-0489, 3-[6-(3,5-dimethylisoxazol-4-yl)-1-[(1-fluorocyclohexyl)methyl]pyrrolo[3,2-b]pyridin-3-yl]-N-methyl-benzenesulfonamide]	< 1	–	< 10000	< 1
Cc1nnn(C)c1-c1cnc2c(-c3cnn(C(F)F)c3)cn(CC3(F)CCC(F)(F)CC3)c2c1 [P-0419, 3-[1-(difluoromethyl)pyrazol-4-yl]-6-(3,5-dimethyltriazol-4-yl)-1-[(1,4,4-trifluorocyclohexyl)methyl]pyrrolo[3,2-b]pyridine]	< 1	< 1	< 10000	–
Cc1noc(C)c1-c1cnc2c(-c3ccc(C(=O)O)cc3F)cn(CC3(F)CCCCC3)c2c1 [P-0468, 4-[6-(3,5-dimethylisoxazol-4-yl)-1-[(1-fluorocyclohexyl)methyl]pyrrolo[3,2-b]pyridin-3-yl]-3-fluoro-benzoic acid]	< 1	–	< 10000	< 1
COC(=O)c1ccc(-c2cn(CC3CCCC3)c3cc(-c4c(C)noc4C)cnc23)cc1 [P-0550, methyl 4-[1-(cyclopentylmethyl)-6-(3,5-dimethylisoxazol-4-yl)pyrrolo[3,2-b]pyridin-3-yl]benzoate]	< 1	–	< 10000	1 to 10
[2H]C([2H])(C1CCC(F)(F)CC1)n1cc(-c2cccnc2)c2ncc(-c3c(C)noc3C)cc21 [P-0340, 4-[1-[dideuterio-(4,4-difluorocyclohexyl)methyl]-3-(3-pyridyl)pyrrolo[3,2-b]pyridin-6-yl]-3,5-dimethyl-isoxazole]	< 1	< 1	< 10000	–
CC[C@H](c1ccccc1)n1cc(-c2ccc(C(=O)OC)cc2)c2ncc(-c3c(C)noc3C)cc21 [P-0569, methyl 4-[6-(3,5-dimethylisoxazol-4-yl)-1-[(1R)-1-phenylpropyl]pyrrolo[3,2-b]pyridin-3-yl]benzoate]	< 1	–	< 10000	< 1
[2H]C([2H])(C1CCC(F)(F)CC1)n1ccc2ncc(-c3c(C)nnn3CC)cc21 [P-0360, 1-[dideuterio-(4,4-difluorocyclohexyl)methyl]-6-(3-ethyl-5-methyl-triazol-4-yl)pyrrolo[3,2-b]pyridine]	1 to 10	10 to 200	< 10000	–
Cc1noc(C)c1-c1cnc2c(-c3ccc(C(=O)O)cc3)cn(Cc3ccccn3)c2c1 [P-0431, 4-[6-(3,5-dimethylisoxazol-4-yl)-1-(2-pyridylmethyl)pyrrolo[3,2-b]pyridin-3-yl]benzoic acid]	< 1	–	< 10000	< 1
CCn1cc(-c2cnc3ccn(CC4CCC(F)(F)CC4)c3c2)ccc1=O [P-0517, 5-[1-[(4,4-difluorocyclohexyl)methyl]pyrrolo[3,2-b]pyridin-6-yl]-1-ethyl-pyridin-2-one]	1 to 10	–	< 10000	1 to 10
Cc1noc(C)c1-c1cnc2c(-c3ccc([N+](=O)[O-])cc3)cn(CC3CCC(F)(F)CC3)c2c1 [P-0598, 4-[1-[(4,4-difluorocyclohexyl)methyl]-3-(4-nitrophenyl)pyrrolo[3,2-b]pyridin-6-yl]-3,5-dimethyl-isoxazole]	< 1	–	< 10000	< 1
Cc1noc(C)c1-c1cnc2c(-c3ccc(C4(C#N)CC4)cc3)cn(CC3CCC(F)(F)CC3)c2c1 [P-0507, 1-[4-[1-[(4,4-difluorocyclohexyl)methyl]-6-(3,5-dimethylisoxazol-4-yl)pyrrolo[3,2-b]pyridin-3-yl]phenyl]cyclopropanecarbonitrile]	< 1	–	< 10000	< 1
Nc1ncc(-c2cnc3c(-c4cnn(CC(F)(F)F)c4)cn(CC4CCC(F)(F)CC4)c3c2)cn1 [P-0451, 5-[1-[(4,4-difluorocyclohexyl)methyl]-3-[1-(2,2,2-trifluoroethyl)pyrazol-4-yl]pyrrolo[3,2-b]pyridin-6-yl]pyrimidin-2-amine]	1 to 10	–	< 10000	10 to 200
Cc1noc(C)c1-c1cnc2c(-c3ccc(C(=O)O)cc3)cn(CC3(F)CCC(F)(F)CC3)c2c1 [P-0382, 4-[6-(3,5-dimethylisoxazol-4-yl)-1-[(1,4,4-trifluorocyclohexyl)methyl]pyrrolo[3,2-b]pyridin-3-yl]benzoic acid]	< 1	< 1	< 10000	–
Cc1noc(C)c1-c1cnc2c(-c3cnn(CC(F)(F)F)c3)cn(CC3(F)CC=C(F)CC3)c2c1 (stereo not drawn) [P-0356, 4-[1-[(1,4-difluorocyclohex-3-en-1-yl)methyl]-3-[1-(2,2,2-trifluoroethyl)pyrazol-4-yl]pyrrolo[3,2-b]pyridin-6-yl]-3,5-dimethyl-isoxazole]	< 1	< 1	< 10000	–
COC(=O)c1ccc(-c2cn(CC3CCC4(CC3)CC4)c3cc(-c4c(C)noc4C)cnc23)cc1 [P-0581, methyl 4-[6-(3,5-dimethylisoxazol-4-yl)-1-(spiro[2.5]octan-6-ylmethyl)pyrrolo[3,2-b]pyridin-3-yl]benzoate]	< 1	–	< 10000	1 to 10
COc1cc(-c2cn(CC3(C)CCOCC3)c3cc(-c4c(C)noc4C)cnc23)ccc1C(=O)O [P-0775, 4-[6-(3,5-dimethylisoxazol-4-yl)-1-[(4-methyltetrahydrpyran-4-yl)methyl]pyrrolo[3,2-b]pyridin-3-yl]-2-methoxy-benzoic acid]	< 1	–	< 10000	< 1
Cc1nnn(C)c1-c1cnc2c(-c3ccc(C(=O)O)cc3)cn(CC3CCC(F)(F)CC3)c2c1 [P-0377, 4-[1-[(4,4-difluorocyclohexyl)methyl]-6-(3,5-dimethyltriazol-4-yl)pyrrolo[3,2-b]pyridin-3-yl]benzoic acid]	< 1	< 1	< 10000	–
COC(=O)CCc1ccc(-c2cn(CC3CCC(F)(F)CC3)c3cc(-c4c(C)noc4C)cnc23)cc1 [P-0529, methyl 3-[4-[1-[(4,4-difluorocyclohexyl)methyl]-6-(3,5-dimethylisoxazol-4-yl)pyrrolo[3,2-b]pyridin-3-yl]phenyl]propanoate]	< 1	–	< 10000	< 1
Cc1noc(C)c1-c1cnc2c(-c3ccc(-c4nnn[nH]4)cc3)cn(CC3(F)CCC(F)(F)CC3)c2c1 [P-0461, 3,5-dimethyl-4-[3-[4-(1H-tetrazol-5-yl)phenyl]-1-[(1,4,4-trifluorocyclohexyl)methyl]pyrrolo[3,2-b]pyridin-6-yl]isoxazole]	< 1	–	< 10000	< 1
[2H]C([2H])(C1CCC(F)(F)CC1)n1cc(-c2cnco2)c2ncc(-c3c(C)noc3C)cc21 [P-0334, 4-[1-[dideuterio-(4,4-difluorocyclohexyl)methyl]-3-oxazol-5-yl-pyrrolo[3,2-b]pyridin-6-yl]-3,5-dimethyl-isoxazole]	< 1	< 1	< 10000	–
Cc1noc(C)c1-c1cnc2c(-c3ccc(NC(=O)NC4CC4)cc3)cn(CC3CCC(F)(F)CC3)c2c1 [P-0562, 1-cyclopropyl-3-[4-[1-[(4,4-difluorocyclohexyl)methyl]-6-(3,5-dimethylisoxazol-4-yl)pyrrolo[3,2-b]pyridin-3-yl]phenyl]urea]	< 1	–	< 10000	< 1
COc1cc(-c2cn(CC3CCCCC3)c3cc(-c4c(C)noc4C)cnc23)ccc1C(=O)O [P-0700, 4-[1-(cyclohexylmethyl)-6-(3,5-dimethylisoxazol-4-yl)pyrrolo[3,2-b]pyridin-3-yl]-2-methoxy-benzoic acid]	< 1	–	< 10000	< 1
Cc1cc(-c2cn(CC3(F)CCCCC3)c3cc(-c4c(C)noc4C)cnc23)ccc1C(=O)O [P-0506, 4-[6-(3,5-dimethylisoxazol-4-yl)-1-[(1-fluorocyclohexyl)methyl]pyrrolo[3,2-b]pyridin-3-yl]-2-methyl-benzoic acid]	< 1	–	< 10000	< 1
Cc1noc(C)c1-c1cnc2c(-c3ccc(C#N)cc3)cn(CC3(F)CCC(F)(F)CC3)c2c1 [P-0458, 4-[6-(3,5-dimethylisoxazol-4-yl)-1-[(1,4,4-trifluorocyclohexyl)methyl]pyrrolo[3,2-b]pyridin-3-yl]benzonitrile]	< 1	–	< 10000	< 1
Cc1noc(C)c1-c1cnc2c(-c3cnn(CC(F)(F)F)c3)cn([C@@H](C)c3ccccn3)c2c1 [P-0512, 3,5-dimethyl-4-[1-[(1S)-1-(2-pyridyl)ethyl]-3-[1-(2,2,2-trifluoroethyl)pyrazol-4-yl]pyrrolo[3,2-b]pyridin-6-yl]isoxazole]	< 1	–	< 10000	< 1
